In article PMC7597410, “Targeting breast cancer metabolism with a novel inhibitor of mitochondrial ATP synthesis” (Oncotarget, 2020) one finds EC50 data, which are given here for 1 compound.

This test deals with T1, mitochondrial ATP synthase subunit alpha (α-F1-ATP synthase, ATP5A) (Homo sapiens, UniProt P25705).
T1 construct: gene ATP5F1A; purified recombinant human α-F1-ATP synthase (CusaBio)
Briefly: DSF Tm increase with purified recombinant α subunit ([…]~[…] CADD522, no Kd); the EC50 is from CETSA in MDA-MB-231 lysate; immunocaptured ATP synthase also inhibited at […]~[…]. It counts as binding.

T1 sequence (P25705 44-553): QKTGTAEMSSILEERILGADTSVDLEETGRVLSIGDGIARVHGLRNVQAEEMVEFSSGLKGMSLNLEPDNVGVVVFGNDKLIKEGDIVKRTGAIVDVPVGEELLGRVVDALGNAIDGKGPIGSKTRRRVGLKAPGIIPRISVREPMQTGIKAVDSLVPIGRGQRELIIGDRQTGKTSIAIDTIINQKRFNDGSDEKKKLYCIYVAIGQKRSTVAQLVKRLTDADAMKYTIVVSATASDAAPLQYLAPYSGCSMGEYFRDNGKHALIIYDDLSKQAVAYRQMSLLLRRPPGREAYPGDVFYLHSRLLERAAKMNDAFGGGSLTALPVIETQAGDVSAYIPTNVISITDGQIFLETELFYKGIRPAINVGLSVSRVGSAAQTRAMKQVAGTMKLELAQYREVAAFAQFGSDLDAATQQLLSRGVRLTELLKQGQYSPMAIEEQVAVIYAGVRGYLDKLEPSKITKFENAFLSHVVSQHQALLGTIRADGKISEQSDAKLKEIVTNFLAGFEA

One may read the EC50 as the concentration that produces a half-maximal response. Turning to `O=C(O)C1C2C=CC(C2)C1C(=O)Nc1ccc(Cl)c(Cl)c1` (stereo not shown) [CADD522], the half-maximal effective concentration (EC50) is < 0.14 µM.
